These results are taken from patent US11111251B2, “Positive allosteric modulators of the muscarinic acetylcholine receptor M1” (Vanderbilt University, priority 2016, dated 2021).

For orientation: pEC50 means −log10 of the EC50, conventionally taken in molar units. Usually Emax stands for the size of the effect at its maximum, as opposed to the concentration needed.

pEC50: −log10 of the molar value. Read-outs that look alike come from different tables or passages of the source.

In the test the target is T1, human mAChR M1 (Homo sapiens, UniProt P11229).
T1 sequence (P11229 1-460): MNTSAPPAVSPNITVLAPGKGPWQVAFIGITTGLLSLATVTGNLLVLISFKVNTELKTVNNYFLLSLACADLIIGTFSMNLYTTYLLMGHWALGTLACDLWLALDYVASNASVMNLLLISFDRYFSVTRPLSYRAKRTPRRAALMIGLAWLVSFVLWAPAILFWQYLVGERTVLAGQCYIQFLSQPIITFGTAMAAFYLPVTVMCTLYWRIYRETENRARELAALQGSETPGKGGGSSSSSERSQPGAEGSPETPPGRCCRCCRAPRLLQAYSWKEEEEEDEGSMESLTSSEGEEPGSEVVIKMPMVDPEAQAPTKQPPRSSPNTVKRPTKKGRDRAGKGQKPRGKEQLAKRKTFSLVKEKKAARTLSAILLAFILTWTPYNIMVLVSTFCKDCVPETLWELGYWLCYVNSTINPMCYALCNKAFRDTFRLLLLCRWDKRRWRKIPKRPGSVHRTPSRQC
Put plainly: mAChR M1 cell-based functional assay: calcium mobilization, positive allosteric modulator mode (increase in EC20 acetylcholine response). Particulars: for Emax: read-out: Human M1 Emax (%). From the text: a. Cell Lines Expressing Muscarinic Acetylcholine Receptors
Chinese hamster ovary (CHO-K1) cells stably expressing rat (r)M1 were purchased from the American Type Culture Collection and cultured according to their indicated protocol. CHO cells stably expressing human (h)M2, hM3, and hM5 were described previously (Levey, et al., 1991); hMi and hM4 cDNAs were purchased from Missouri S&T cDNA Resource; rM4 cDNA was provided by T. I. Bonner (National Institutes of Health, Bethesda, Md.). rM2 and rM3 were cloned from a rat brain cDNA library and sequence verified. hMi, rM2, rM3, hM4, and rM4 cDNAs were used to stably transfect CHO-K1 cells purchased from the American Type Culture Collection using Lipofectamine2000. To make stable rM2, hM2, rM3, hM4, and rM4 cell lines for use in calcium mobilization assays, these cells also were stably transfected with a chimeric G-protein (Gqi5) (provided by B. R. Conklin, University of California, San Francisco) using Lipofectamine 2000. rMi, hMi, rM3, hM3, rM5, and hM5 cells were grown in Ham's F-12 medium containing 10% heat-inactivated fetal bovine serum (FBS), 20 mM HEPES, and 50 μg/mL G418 sulfate. rM2-Gqi5, hM2-Gqi5, and hM4-Gqi5 cells were grown in the same medium also containing 500 μg/mL Hygromycin B. Stable rM4-Gqi5 cells were grown in DMEM containing 10% heat-inactivated FBS, 20 mM HEPES, 400 μg/mL G418 sulfate, and 500 μg/mL Hygromycin B.
b. Cell-Based Functional Assay of Muscarinic Acetylcholine Receptor Activity
For high throughput measurement of agonist-evoked increases in intracellular calcium, CHO-K1 cells stably expressing muscarinic receptors were plated in growth medium lacking G418 and hygromycin at 15,000 cells/20 μL/well in Greiner 384-well black-walled, tissue culture (TC)-treated, clear-bottom plates (VWR). Cells were incubated overnight at 37° C. and 5% CO2. The next day, cells were washed using an ELX 405 (BioTek) with four washes (80 μL) of assay buffer then aspirated to 20 μL. Next, 20 μL of 16 μM Fluo-4/acetoxymethyl ester (Invitrogen, Carlsbad, Calif.) prepared as a 2.3 mM stock in DMSO and mixed in a 1:1 ratio with 10% (w/v) Pluronic F-127 and diluted in assay buffer was added to the wells and the cell plates were incubated for 50 min at 37° C. and 5% CO2. Dye was removed by washing with the ELX 405 (four […], washes of assay buffer) then aspirated to 20 μL. Compound master plates were formatted in an 11 point CRC format (1:3 dilutions) in 100% DMSO with a starting concentration of 10 mM using the BRAVO liquid handler (Agilent). Test compound CRCs were then transferred to daughter plates (240 nL) using the Echo acoustic plate reformatter (Labcyte, Sunnyvale, Calif.) and then diluted into assay buffer (40 μL) to a 2× stock using a Thermo Fisher Combi (Thermo Fisher Scientific, Waltham, Mass.).
Calcium flux was measured using the Functional Drug Screening System (FDSS) 6000 (Hamamatsu Corporation, Tokyo, Japan) as an increase in the fluorescent static ratio. Compounds were applied to cells (20 μL, 2×) using the automated system of the FDSS 6000 at 4 s into the 300 s protocol and the data were collected at 1 Hz. At 144 s into the 300s protocol, 10 μL of an EC20 concentration of the muscarinic receptor agonist acetylcholine was added (5×), followed by the addition of 12 μL an EC80 concentration of acetylcholine at the 230 s time point (5×). Agonist activity was analyzed as a concentration-dependent increase in calcium mobilization upon compound addition. Positive allosteric modulator activity was analyzed as a concentration-dependent increase in the EC20 acetylcholine response. Antagonist activity was analyzed as a concentration-dependent decrease in the EC80 acetylcholine response. Concentration-response curves were generated using a four-parameter logistical equation in XLfit curve fitting software (IDBS, Bridgewater, N.J.) for Excel (Microsoft, Redmond, Wash.) or Prism (GraphPad Software, Inc., San Diego, Calif.).
In general terms: Calcium assays in cells follow changes in intracellular calcium, usually with a dye or a luminescent sensor.

Setting [1] is: Table 2, human M1, read-out: Human M1 EC50.
Where [2] appears, read: Table 1, mAChR M1 cell-based functional assay, PAM mode, species not given, read-out: EC50.

As for `Cn1cc(-c2ccc(Cc3cc(C(=O)N[C@@H]4CCCC[C@H]4O)nc4ccsc34)cc2)nn1` [Compound 155, N-[(1R,2R)-2-hydroxycyclohexyl]-7-[[4-(1-methyltriazol-4-yl)phenyl]methyl]thieno[3,2-b]pyridine-5-carboxamide], under setting [1], the pEC50 is 7.90. For the setting “Table 2, human M1”, the Emax was determined as 68.7%. `COCCCNC(=O)c1cc(Cc2ccc(-c3nccs3)cc2)c2sccc2n1` [Compound 372, N-(3-methoxypropyl)-7-[(4-thiazol-2-ylphenyl)methyl]thieno[3,2-b]pyridine-5-carboxamide]: the negative-log EC50 (pEC50) under setting [1] is 5.73. Besides, the Emax (Table 2, human M1) stood at 75.3%.

Take `Cc1csc2c(Cc3ccc(-n4cccn4)cc3)cc(C(=O)N[C@H]3CCOC3)nc12` [Compound 317, 3-methyl-7-[(4-pyrazol-1-ylphenyl)methyl]-N-[(3S)-tetrahydrofuran-3-yl]thieno[3,2-b]pyridine-5-carboxamide]: the negative-log EC50 (pEC50) under setting [1] was 5.77. Further, the maximal effect (Emax) (Table 2, human M1) came to 43.1%. The corresponding values for `Cc1csc2c(Cc3ccc(-c4ccn(C)n4)cc3)cc(C(=O)NC3CC(F)C3)nc12` (stereo not shown) [Compound 308, N-(3-fluorocyclobutyl)-3-methyl-7-[[4-(1-methylpyrazol-3-yl)phenyl]methyl]thieno[3,2-b]pyridine-5-carboxamide] are 5.27 and 62.1%. The corresponding values for `Cc1nn(C)c(C)c1-c1ccc(Cc2cc(C(=O)N[C@H]3CCC[C@@H]3O)nc3ccsc23)cc1` [Compound 242] are below 5.00 and 17.8%. Taken in the same sequence, the figures for `O=C(NC1CCOCC1)c1cc(C(=O)c2ccc(-n3cccn3)cc2)c2sccc2n1` [Compound 264, 7-(4-pyrazol-1-ylbenzoyl)-N-tetrahydropyran-4-yl-thieno[3,2-b]pyridine-5-carboxamide] were below 5.00 and 72.7%. Take `Cc1csc2c(Cc3ccc(-c4ccn(C)n4)cc3)cc(C(=O)N[C@H]3CCOC[C@@H]3O)nc12` [Compound 313]: the pEC50 under setting [1] was 7.64. The maximal effect (Emax) (Table 2, human M1) was 63.9%. Taken in the same sequence, the figures for `Cc1csc2c(Cc3ccc(-c4ccn(C)n4)cc3)cc(C(=O)NC3CC(F)(F)C3)nc12` [Compound 309, N-(3,3-difluorocyclobutyl)-3-methyl-7-[[4-(1-methylpyrazol-3-yl)phenyl]methyl]thieno[3,2-b]pyridine-5-carboxamide] were 5.31 and 57.3%. Taken in the same sequence, the figures for `Cn1cc(-c2ccc(Cc3cc(C(=O)NCC4CCOC4)nc4ccsc34)cn2)cn1` (stereo not shown) [Compound 348, 7-[[6-(1-methylpyrazol-4-yl)-3-pyridyl]methyl]-N-(tetrahydrofuran-3-ylmethyl)thieno[3,2-b]pyridine-5-carboxamide] were 6.89 and 85.6%. The corresponding values for `Cn1cc(-c2ccc(Cc3cc(C(=O)N[C@@H]4COCC[C@H]4O)nc4ccsc34)cc2)nn1` [Compound 154, N-[(3R,4R)-4-hydroxytetrahydropyran-3-yl]-7-[[4-(1-methyltriazol-4-yl)phenyl]methyl]thieno[3,2-b]pyridine-5-carboxamide] are 8.21 and 83.9%.

In the case of `Cn1ccc(-c2ccc(Cc3cc(C(=O)NC4CC(F)(F)C4)nc4ccsc34)cn2)n1` [Compound 420, N-(3,3-difluorocyclobutyl)-7-[[6-(1-methylpyrazol-3-yl)-3-pyridyl]methyl]thieno[3,2-b]pyridine-5-carboxamide], the pEC50 under setting [1] is 6.40. The Emax (Table 2, human M1) came to 64.2%. The corresponding values for `O=C(NC1CC(F)C1)c1cc(Cc2ccc(-c3cscn3)cc2)c2sccc2n1` (stereo not shown) [Compound 205, N-(3-fluorocyclobutyl)-7-[(4-thiazol-4-ylphenyl)methyl]thieno[3,2-b]pyridine-5-carboxamide] are 5.76 and 78%. For `O=C(NC1CCCOC1)c1cc(Cc2ccc(-c3nccs3)cc2)c2sccc2n1` (stereo not shown) [Compound 366, N-tetrahydropyran-3-yl-7-[(4-thiazol-2-ylphenyl)methyl]thieno[3,2-b]pyridine-5-carboxamide], the pEC50 under setting [1] was 5.73. The Emax (Table 2, human M1) is 83.7%. The corresponding values for `Cn1ccc(-c2ccc(Cc3cc(C(=O)NC4CC5(COC5)C4)nc4ccsc34)cc2)n1` [Compound 252, 7-[[4-(1-methylpyrazol-3-yl)phenyl]methyl]-N-(2-oxaspiro[3.3]heptan-6-yl)thieno[3,2-b]pyridine-5-carboxamide] are 6.59 and 78.4%. As for `Cn1ccc2nc(C(=O)NCC3CCOCC3)cc(Cc3ccc(-c4nccs4)cc3)c21` [Compound 486, 1-methyl-N-(tetrahydropyran-4-ylmethyl)-7-[(4-thiazol-2-ylphenyl)methyl]pyrrolo[3,2-b]pyridine-5-carboxamide], the negative logarithm of the EC50 (pEC50) under setting [1] is 6.32. The maximum response (Emax) (Table 2, human M1) came to 37.5%.

Take `Cn1ccc(-c2ccc(Cc3cc(C(=O)N[C@H]4CCOC4)nc4ccsc34)cn2)n1` [Compound 417, 7-[[6-(1-methylpyrazol-3-yl)-3-pyridyl]methyl]-N-[(3S)-tetrahydrofuran-3-yl]thieno[3,2-b]pyridine-5-carboxamide]: the negative logarithm of the EC50 (pEC50) under setting [1] is 5.33. Further, the Emax (Table 2, human M1) came out at 66.6%. Regarding `Cn1cc(-c2ccc(Oc3cc(C(=O)NC4CC[C@H]4O)nc4ccsc34)c(F)c2)cn1` (stereo partly drawn) [Compound 5, 7-[2-fluoro-4-(1-methylpyrazol-4-yl)phenoxy]-N-[(2R)-2-hydroxycyclobutyl]thieno[3,2-b]pyridine-5-carboxamide], under setting [2], the pEC50 was below 5.00. With `Cn1cc(-c2ccc(Cc3cc(C(=O)N[C@H]4CC[C@@H]4O)nc4ccsc34)cc2)nn1` [Compound 148, N-[(1S,2S)-2-hydroxycyclobutyl]-7-[[4-(1-methyltriazol-4-yl)phenyl]methyl]thieno[3,2-b]pyridine-5-carboxamide], the pEC50 under setting [1] is 7.48. In addition, under “Table 2, human M1”, the Emax stood at 85.5%. The corresponding values for `Cc1ncc(Cc2cc(C(=O)NC3C4CC5CC3CC(O)(C5)C4)nc3ccsc23)s1` [Compound 142, N-(1S)-5-hydroxy-2-adamantyl]-7-[(2-methylthiazol-5-yl)methyl]thieno[3,2-b]pyridine-5-carboxamide] are 5.31 and 23.9%. Turning to `Cn1cc(-c2ccc(Oc3cc(C(=O)N[C@H]4CCC[C@@H]4O)nc4ccsc34)c(F)c2)cn1` [Compound 6], the pEC50 under setting [2] is below 5.00. For the molecule `Cc1ccc(Cc2cc(C(=O)Nc3c[nH]cn3)nc3ccsc23)cn1` [Compound 70, N-(1H-imidazol-4-yl)-7-[(6-methyl-3-pyridyl)methyl]thieno[3,2-b]pyridine-5-carboxamide], the negative logarithm of the EC50 (pEC50) under setting [1] is below 5.00. Also, under “Table 2, human M1”, the maximal effect (Emax) turned out to be 62.4%.
